Measurements from patent publication US20240150368A1, “ULK INHIBITORS AND METHODS OF USE THEREOF” (Deciphera Pharmaceuticals, LLC, priority 2022, published 2024).

Tests used:
[1] = biological target: T1, LRRK2 kinase (Homo sapiens, UniProt Q5S007); experiment: Biochemical assay for LRRK2 (coupled pyruvate kinase/lactate dehydrogenase assay); conditions: 26.4 nM LRRK2, 1 mM ATP; read-out: LRRK2 (inhibition of LRRK2 kinase activity, IC50)
T1 construct: (residues 970-2528; ID NO; 3); purchased Thermo Fisher
T1 sequence (Q5S007 with tags, fused parts or gaps): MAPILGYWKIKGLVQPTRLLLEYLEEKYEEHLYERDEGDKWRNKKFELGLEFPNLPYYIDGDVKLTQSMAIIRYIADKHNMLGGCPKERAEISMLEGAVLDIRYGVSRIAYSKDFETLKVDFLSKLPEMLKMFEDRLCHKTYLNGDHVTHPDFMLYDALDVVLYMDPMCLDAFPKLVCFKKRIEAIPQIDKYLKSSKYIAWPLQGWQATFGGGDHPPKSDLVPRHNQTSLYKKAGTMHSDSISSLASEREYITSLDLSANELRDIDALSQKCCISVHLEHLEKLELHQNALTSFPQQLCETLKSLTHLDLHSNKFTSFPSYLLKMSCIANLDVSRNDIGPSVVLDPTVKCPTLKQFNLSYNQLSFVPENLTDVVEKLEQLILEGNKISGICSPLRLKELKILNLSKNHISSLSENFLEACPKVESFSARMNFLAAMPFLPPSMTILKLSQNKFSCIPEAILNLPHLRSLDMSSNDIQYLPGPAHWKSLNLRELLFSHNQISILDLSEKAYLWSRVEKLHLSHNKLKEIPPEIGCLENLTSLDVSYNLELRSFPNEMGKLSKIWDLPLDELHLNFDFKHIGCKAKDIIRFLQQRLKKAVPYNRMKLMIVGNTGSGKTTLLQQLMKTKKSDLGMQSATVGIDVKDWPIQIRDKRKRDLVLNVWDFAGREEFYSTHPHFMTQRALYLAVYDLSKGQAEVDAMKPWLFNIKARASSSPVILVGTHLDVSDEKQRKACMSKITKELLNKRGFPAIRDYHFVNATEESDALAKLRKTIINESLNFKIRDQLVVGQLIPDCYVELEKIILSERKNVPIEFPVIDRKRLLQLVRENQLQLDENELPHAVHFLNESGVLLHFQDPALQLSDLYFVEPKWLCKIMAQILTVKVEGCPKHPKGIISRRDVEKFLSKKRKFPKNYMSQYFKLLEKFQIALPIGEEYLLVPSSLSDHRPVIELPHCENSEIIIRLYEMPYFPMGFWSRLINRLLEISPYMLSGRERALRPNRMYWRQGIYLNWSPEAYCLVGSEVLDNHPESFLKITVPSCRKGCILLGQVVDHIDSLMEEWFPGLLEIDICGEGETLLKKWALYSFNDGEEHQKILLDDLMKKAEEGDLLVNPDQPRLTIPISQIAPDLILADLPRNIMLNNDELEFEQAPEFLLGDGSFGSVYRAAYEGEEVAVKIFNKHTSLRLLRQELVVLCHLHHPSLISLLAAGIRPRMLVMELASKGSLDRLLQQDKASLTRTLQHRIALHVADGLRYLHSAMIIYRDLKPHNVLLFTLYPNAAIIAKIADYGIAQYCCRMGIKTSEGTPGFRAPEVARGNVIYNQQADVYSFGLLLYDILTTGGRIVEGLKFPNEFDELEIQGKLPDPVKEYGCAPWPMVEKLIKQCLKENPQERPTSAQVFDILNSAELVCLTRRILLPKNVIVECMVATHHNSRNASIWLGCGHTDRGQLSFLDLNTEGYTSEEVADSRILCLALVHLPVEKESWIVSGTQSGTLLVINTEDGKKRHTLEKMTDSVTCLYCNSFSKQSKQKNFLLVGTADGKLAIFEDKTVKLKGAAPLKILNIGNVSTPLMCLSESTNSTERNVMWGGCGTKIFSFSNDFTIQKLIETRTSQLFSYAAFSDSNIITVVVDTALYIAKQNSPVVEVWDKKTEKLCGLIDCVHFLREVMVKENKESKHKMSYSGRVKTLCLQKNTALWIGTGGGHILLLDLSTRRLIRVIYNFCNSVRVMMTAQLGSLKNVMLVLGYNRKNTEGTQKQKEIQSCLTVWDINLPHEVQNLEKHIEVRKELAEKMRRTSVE

[2] = biological target: T2, ULK2 kinase (Homo sapiens, UniProt Q8IYT8); experiment: Biochemical assay for ULK2 (coupled pyruvate kinase/lactate dehydrogenase assay); conditions: 1 mM ATP, 1 nM ULK2; read-out: ULK2 (inhibition of biochemical activity), IC50
T2 construct: (residues 1-306 with N-terminal GST and His tag; ID NO: 2); purchased Signal Chem U02-11G
T2 sequence (Q8IYT8 with tags, fused parts or gaps): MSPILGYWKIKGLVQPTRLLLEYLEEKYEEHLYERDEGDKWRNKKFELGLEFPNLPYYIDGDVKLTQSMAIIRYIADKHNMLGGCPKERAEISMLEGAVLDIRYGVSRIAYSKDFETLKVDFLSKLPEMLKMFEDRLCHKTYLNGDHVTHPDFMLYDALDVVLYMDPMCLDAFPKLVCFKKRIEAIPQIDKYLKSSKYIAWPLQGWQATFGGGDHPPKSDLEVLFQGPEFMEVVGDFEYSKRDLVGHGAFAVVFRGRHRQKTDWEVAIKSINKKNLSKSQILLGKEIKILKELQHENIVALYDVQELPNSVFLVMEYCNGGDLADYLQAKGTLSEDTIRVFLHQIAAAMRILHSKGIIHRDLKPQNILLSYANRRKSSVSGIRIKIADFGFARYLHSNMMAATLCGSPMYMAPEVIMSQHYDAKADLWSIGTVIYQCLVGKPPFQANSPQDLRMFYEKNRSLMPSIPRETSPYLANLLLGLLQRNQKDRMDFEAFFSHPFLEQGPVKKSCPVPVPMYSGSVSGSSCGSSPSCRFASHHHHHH
Method in brief: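 Continuous PK/LDH-coupled NADH oxidation assay (A340) with 1 nM ULK2, 200 μM ULKtide and 1 mM ATP in Tris pH 7.5, 15 mM MgCl2, 1% DMSO, read 6 h at 30° C. Rates from the 2-3 h window converted to percent inhibition against no-compound and known-inhibitor controls; IC50 by four-parameter sigmoidal fit.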

[3] = tested on: ULK kinase substrate ATG13 (pS318-ATG13) in MiaPaCa-2 cells; experiment: pATG13 levels of mutant KRas MiaPaCa-2 cells after treatment with ULK inhibitors in combination with trametinib (ELISA); type: cell-based, human
Method in brief: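 MiaPaCa-2 cells grown overnight, then dosed with test compound titration plus trametinib (final 250 nM) or DMSO, overnight at 37° C. Lysate pS318-ATG13 measured by sandwich ELISA (total ATG13 capture, biotinylated pS318 detection, HRP/TMB, A450 minus A540); % phosphorylation vs control wells fitted to IC50.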

| IC50 [1] | IC50 [2] | IC50 [3] | Structure (SMILES) |
| --- | --- | --- | --- |
| 100 to 300 nM | 10 to 100 nM | ≤ 100 nM | CC/C(Nc1cnn(C2CCN(C(C)C)CC2)c1)=C1/C(=O)Nc2ccc(C(=O)NC[C@H]3CCCO3)cc21 [Example 1, (R,Z)-3-(1-((1-(1-isopropylpiperidin-4-yl)-1H-pyrazol-4-yl)amino)propylidene)-2-oxo-N-((tetrahydrofuran-2-yl)methyl)indoline-5-carboxamide] |
| – | 10 to 100 nM | ≤ 100 nM | CC/C(Nc1ccc(N2C[C@H]3CN(C)C[C@H]3C2)cc1)=C1/C(=O)Nc2ccc(C(=O)NCC(C)C)cc21 [Example 63] |
| – | 10 to 100 nM | ≤ 100 nM | CC/C(Nc1ccc(N2C[C@H]3CN(C)C[C@H]3C2)cc1)=C1/C(=O)Nc2ccc(C(=O)NC[C@H]3CCCO3)cc21 [Example 64] |
| – | 10 to 100 nM | ≤ 100 nM | CC/C(Nc1ccc(N2CC3(CN(C)C3)C2)cc1)=C1/C(=O)Nc2ccc(C(=O)NCC(C)C)cc21 [Example 65] |
| – | 10 to 100 nM | ≤ 100 nM | CC/C(Nc1ccc(N2CC3(CN(C)C3)C2)cc1)=C1/C(=O)Nc2ccc(C(=O)NC[C@H]3CCCO3)cc21 [Example 66] |
| – | 10 to 100 nM | ≤ 100 nM | CC/C(Nc1ccc(N2CC3CC2CN3C)cc1)=C1/C(=O)Nc2ccc(C(=O)NCC(C)C)cc21 (centres unmarked) [Example 69] |
| – | 10 to 100 nM | ≤ 100 nM | CC/C(Nc1ccc(N2CC3CC2CN3C)cc1)=C1/C(=O)Nc2ccc(C(=O)NC[C@H]3CCCO3)cc21 (some centres unmarked) [Example 70] |
| – | 10 to 100 nM | ≤ 100 nM | CC/C(Nc1ccc(N2CC3CC2CN3C)cc1)=C1/C(=O)Nc2ccc(C(=O)NCC(F)(F)F)cc21 (centres unmarked) [Example 71] |
| – | 100 to 500 nM | ≤ 100 nM | CC/C(Nc1ccc(N2CCN(C)CC2)nc1)=C1/C(=O)Nc2ccc(C(=O)NCC(F)(F)F)cc21 [Example 74] |
| ≤ 100 nM | ≤ 10 nM | ≤ 100 nM | CC/C(Nc1ccc(N2CCN(C)CC2)cn1)=C1/C(=O)Nc2ccc(C(=O)NCC(F)(F)F)cc21 [Example 75] |
| ≤ 100 nM | 10 to 100 nM | ≤ 100 nM | CC/C(Nc1cnn(C)c1)=C1/C(=O)Nc2ccc(C(=O)NCC(F)(F)F)cc21 [Example 77] |
| ≤ 100 nM | 10 to 100 nM | 100 to 300 nM | CC/C(Nc1ccc(-c2nc(C)no2)cc1)=C1/C(=O)Nc2ccc(C(=O)NCC(F)(F)F)cc21 [Example 78] |
| – | 10 to 100 nM | ≤ 100 nM | CC/C(Nc1ccc(-c2cn(C)nn2)cc1)=C1/C(=O)Nc2ccc(C(=O)NCC(F)(F)F)cc21 [Example 79] |
| – | ≤ 10 nM | ≤ 100 nM | CC/C(Nc1cnn(C2CCN(C(C)C)CC2)c1)=C1/C(=O)Nc2ccc(C(=O)NC[C@H]3CC(F)(F)CO3)cc21 [Example 80] |
| – | ≤ 10 nM | ≤ 100 nM | CC/C(Nc1cnn(C2CCN(C(C)C)CC2)c1)=C1/C(=O)Nc2ccc(C(=O)NCCOC(F)(F)F)cc21 [Example 82] |
| – | 10 to 100 nM | ≤ 100 nM | CC/C(Nc1cnn(C2CCN(C(C)C)CC2)c1)=C1/C(=O)Nc2ccc(C(=O)NC[C@H]3CCCCO3)cc21 [Example 83] |
| ≤ 100 nM | ≤ 10 nM | ≤ 100 nM | CC/C(Nc1cnn(C2CC3(C2)CN(C)C3)c1)=C1/C(=O)Nc2ccc(C(=O)NCC(F)(F)F)cc21 [Example 84] |
| ≤ 100 nM | 10 to 100 nM | 100 to 300 nM | CC/C(Nc1ccc(N2CC3(COC3)C2)cc1)=C1/C(=O)Nc2ccc(C(=O)NCC(F)(F)F)cc21 [Example 85] |
| 100 to 300 nM | 10 to 100 nM | ≤ 100 nM | CC/C(Nc1cnn(C2CN(C)C2)c1)=C1/C(=O)Nc2ccc(C(=O)NCC(F)(F)F)cc21 [Example 86] |
| – | 10 to 100 nM | ≤ 100 nM | CC/C(Nc1cnn(C2CN(C)C2)c1)=C1/C(=O)Nc2ccc(C(=O)NCC(C)C)cc21 [Example 87] |
| – | 10 to 100 nM | ≤ 100 nM | CC/C(Nc1cnn(C2CN(C3CCC3)C2)c1)=C1/C(=O)Nc2ccc(C(=O)NC[C@H]3CCCO3)cc21 [Example 88] |
| – | 100 to 500 nM | 100 to 300 nM | CC/C(Nc1cnn(C2CN(C)C2)c1)=C1/C(=O)Nc2ccc(C(=O)NCCOC)cc21 [Example 89] |
| – | 10 to 100 nM | ≤ 100 nM | CC/C(Nc1cnn(C2CN(CC)C2)c1)=C1/C(=O)Nc2ccc(C(=O)NC[C@H]3CCCO3)cc21 [Example 90] |
| – | 10 to 100 nM | ≤ 100 nM | CC/C(Nc1cnn(C2CN(C(C)C)C2)c1)=C1/C(=O)Nc2ccc(C(=O)NC[C@H]3CCCO3)cc21 [Example 91] |
| 300 to 600 nM | 100 to 500 nM | ≤ 100 nM | CC/C(Nc1ccc(N2CCN(C(C)C)CC2)cn1)=C1/C(=O)Nc2cc(F)c(C(=O)NCC(F)(F)F)cc21 [Example 92] |

| Structure (SMILES) | IC50 [1] | IC50 [2] | IC50 [3] |
| --- | --- | --- | --- |
| CC/C(Nc1ccc(N2CC3CC(C2)N3C)cc1)=C1/C(=O)Nc2ccc(C(=O)NCC(C)C)cc21 [Example 67] | – | 10 to 100 nM | ≤ 100 nM |
| CC/C(Nc1ccc(N2CC3CC(C2)N3C)cc1)=C1/C(=O)Nc2ccc(C(=O)NC[C@H]3CCCO3)cc21 [Example 68] | – | 10 to 100 nM | ≤ 100 nM |
